{
  "source": "patent US20240172757A1",
  "about": "“METHOD OF […] A […] CROP” (priority 2021, published 2024)",
  "key": {"soybean plant crop [1]": {"tested_on": "soybean plant crop", "assay": "Composition, yield and seed quality analysis of harvested soybeans after spraying at R6", "format": "in vivo", "protocol": "During trial applications of the solutions described herein, composition, yield and seed quality was analyzed. It was discovered that even under challenges such as hotter than normal temperatures and drought conditions, the solutions described herein allow for manipulation of the seasons for advantageous harvesting of high quality soybeans. Soybean crop (variety “Linda,” a group 5.6 determinate soybean) was planted in 8-24 row strips following a fall corn crop. Herbicide was applied at 3 pints/acre and crop was fertilized with 20 gallons of 32-0-0 per acre, followed by irrigation as needed. Soil maps indicated two different soil types (Harlingen clay and Olmito clay) in the field that bisected the field, with the second replication having slightly less Olmito clay in the treated area. As they are both components of the other, the field was consistent to visual observation. […] The growth stage of the beans at this point is still very rapid but the dry weight and nutrient accumulation begins to slow in the whole plant by R6.5 which is just 7-10 days later in many cases. Another indicator of the R6 stage is visual signs of senescence in the older leaves of the plants.\nSprayer comprising the 2-chloroethylphosphonic acid solution was prepared and applied as described above at the following rates of Table. 1. Weather conditions at the time of spraying can be found in Table 2.\nThe sprayed crops were monitored daily to observe phenotypic changes which included leaf color, leaf drop, pod desiccation, and any visual between treatments. After two days post-spraying, photographs were taken to show the changes in color due to senescense taking place.\nHarvest was slightly delayed (about 3 days) due to unavailability of the combine, however, even with this delay, harvested crops were sent for composition and seed quality parameters. The actual harvest during these test runs was well below a soybean moisture content of a market standard 13%.\nThe 0.75 pounds of the 2-chloroethylphosphonic acid solution per acre rate was highest in crude fat, crude protein, digestible energy and total digestible nutrients (TDN) while being lowest in crude fiber. […] FIGS. 1 through 4 illustrate major nutritional components affected by treatment rate, where the term “a.i.” is meant to refer to the 2-chloroethylphosphonic acid solution described above. FIG. 1 is a graph of crude protein affected by treatment rate of 2-chloroethylphosphonic acid solution according to an embodiment. FIG. 2 is a graph of crude fat affected by treatment rate of 2-chloroethylphosphonic acid solution according to an embodiment. FIG. 3 is a graph of crude fiber affected by treatment rate of 2-chloroethylphosphonic acid solution according to an embodiment. FIG. 4 is a graph of total digestible nutrients affected by treatment rate of 2-chloroethylphosphonic acid solution according to an embodiment."}, "soybean plant crop [2]": {"tested_on": "soybean plant crop", "assay": "Field test runs: acceleration of senescence/maturation and time to harvest of soybean crop after spraying at a reproductive growth stage", "format": "in vivo", "text": "The solution of 2-chloroethylphosphonic acid may be prepared by mixing together 2-chloroethylphosphonic acid (known as ethephon in liquid form and obtainable from a number of sources) with a water solution or a liquid medium that is non-toxic to the particular legume desired. Most commercial sprayers are suitable for preparation and/or application of the solution described herein. To prepare the mixture, during test runs, a tank comprising a capacity of 600 gallons and an agitator was used. Continuous agitation of the mixture during preparation seems to provide best results.\nIn some embodiments, the 2-chloroethylphosphonic acid solution may comprise a water-soluble urea comprising approximately 46% nitrogen. A dry form of nitrogen may be part of the water solution or it may be part of the 2-chloroethylphosphonic acid solution with suitable mixing. Mixing is performed continuously in certain embodiments. During some test runs, approximately 4 pounds of urea per acre was added to about 10 gallons (83.4 pounds) of water per acre, followed by approximately 1.5 pounds of 2-chloroethylphosphonic acid per acre. In some embodiments, the 2-chloroethylphosphonic acid may also comprise a spreader-sticker. The spreader-sticker may be added, for example, at a rate of 2 ounces (0.125 pounds) per acre and may be silicone-based. A suitable silicone-based spreader-sticker, for example, is Kinetic by Helena. Other non-silicone-based sticker-spreaders may also be used.\nApplication of the 2-chloroethylphosphonic acid solution should be performed when the leguminous plant crop comprises at least 50% of the planted crops in the field at a seed growth stage. In some embodiments, the leguminous plant may be at an R5 growth stage when application of the solution described herein is performed. During R5, a fully developed seed pod may comprise, for example, a match-head sized seed in the pod. In some embodiments, the leguminous plant may be at growth stage R5.5, or between R5 and R6 for application. In some embodiments, application is performed when at least 50% of the planted leguminous plant crop is at an R6 reproductive growth stage, as described above. For example, R6 may be visually characterized or identified when at least 50% of the leguminous plant crop comprises at least one seed or “green bean” (in a top pod of the plant) comprising a width equal to its pod cavity. In some embodiments, the leguminous plant may be at growth stage R6.5, or at or between R6 and R7. During some test runs, senescence was achieved within 5 days after application of the solution described herein, with successful harvesting of quality crop. By way of example, prior to application, the physiological stage of the leguminous plant may be determined by inspecting the terminal (or last growing point at the top) end of the leguminous plant crop for a seed pod. Triggering maturation at the R5 growth stage may produce smaller seeds. For commercial production, triggering at R6 may be most successful to obtain more seed at a greater weight.\nApplication of the solution described herein may perform best at temperatures below 98° F. In some embodiments, application of the solution is performed at a temperature below about 90° F. Successful test runs, by way of example, described below were performed at 88° F.\nDuring trial runs, soybean plant crops were planted on plot sizes ranging from 25-150 acres. Soybean plant crops were planted on soil used for rotational crops including, for example, grass crop, corn crop, or grain crop. Crops were seeded approximately 1-1.5 inches deep with a twin line planter. No other pretreatments were performed on the soil during test runs. Ground application was performed on raised beds using a flow jet capable of delivering a minimum of 10-20 gallons per acre. Raised beds were used during some test runs. Furrow irrigation was used to water the soybean plant crop, applying water to the top end of each furrow. […]"}},
  "data": [
    {"smiles": "O=P(O)(O)CCCl", "note": "[2-chloroethylphosphonic acid]", "values": [
      {"measurement": "total digestible nutrients (TDN) (rank among treatments)", "setting": "soybean plant crop [1]; 0.375 pounds per acre, R6", "result": "Ranked behind that in TDN"},
      {"measurement": "crude fat (rank among treatments)", "setting": "soybean plant crop [1]; 0.75 pounds per acre, R6", "result": "highest"},
      {"measurement": "crude fiber (rank among treatments)", "setting": "soybean plant crop [1]; 0.75 pounds per acre, R6", "result": "lowest"},
      {"measurement": "crude protein (rank among treatments)", "setting": "soybean plant crop [1]; 0.75 pounds per acre, R6", "result": "highest"},
      {"measurement": "digestible energy (rank among treatments)", "setting": "soybean plant crop [1]; 0.75 pounds per acre, R6", "result": "highest"},
      {"measurement": "total digestible nutrients (TDN) (rank among treatments)", "setting": "soybean plant crop [1]; 0.75 pounds per acre, R6", "result": "highest"},
      {"measurement": "overall nutrients versus untreated", "setting": "soybean plant crop [1]; all three treatments (0.375, 0.75, 1.125 pounds per acre)", "result": "improved overall nutrients"},
      {"measurement": "acceleration of maturation in soybean plants", "setting": "soybean plant crop [2]; about 0.375 pounds per acre at the R-6 stage", "result": "significant acceleration of maturation"},
      {"measurement": "accelerated maturation of a soybean plant", "setting": "soybean plant crop [2]; about 0.75 pounds per acre at the R-6 reproductive growth stage", "result": "Accelerated maturation"},
      {"measurement": "harvesting stage reached sooner than without spraying", "setting": "soybean plant crop [2]; following application at a reproductive growth stage", "result": "10 to 14", "unit": "days"},
      {"measurement": "maturation achieved faster than when not treated", "setting": "soybean plant crop [2]; in some cases, high temperature and high humidity environments", "result": "up to 40 days"},
      {"measurement": "days shaved off waiting times", "setting": "soybean plant crop [2]; in some cases, versus typical minimum 39-day period", "result": "about 30 days"},
      {"measurement": "time to senescence after application", "setting": "soybean plant crop [2]; some test runs", "result": "≤ 5", "unit": "days"},
      {"measurement": "germination rate", "setting": "soybean plant crop [2]; trial runs, 25-150 acre plots", "result": "≥ 90", "unit": "%"}
    ]}
  ]
}
